IC50 data for three compounds are collected here from the Kinase Knowledgebase extract (Sharma et al. 2016).

The target of test [1] is MAPK14 (human) (UniProt Q16539). As to the kind of experiment: Inhibition of IL-1 Production in LPS Stimulated PBMC.
Test [2] shares this target. As to the kind of experiment: Inhibition of p38 Kinase Activity.
Test [3] has the same target. As to the kind of experiment: Inhibition of IL-1 Production in LPS Whole Blood Cells.
Test [4] shares this target. As to the kind of experiment: Inhibition of TNF-alpha Production in LPS Stimulated Whole Blood Cells.
Test [5] has the same target. As to the kind of experiment: Inhibition of TNF-alpha Production in LPS Stimulated PBMC.
Test [6] has the same target. As to the kind of experiment: Inhibition of IL-6 Production in Whole Blood Cells.

Chain of MAPK14 (human) (Q16539 whole entry, looked up): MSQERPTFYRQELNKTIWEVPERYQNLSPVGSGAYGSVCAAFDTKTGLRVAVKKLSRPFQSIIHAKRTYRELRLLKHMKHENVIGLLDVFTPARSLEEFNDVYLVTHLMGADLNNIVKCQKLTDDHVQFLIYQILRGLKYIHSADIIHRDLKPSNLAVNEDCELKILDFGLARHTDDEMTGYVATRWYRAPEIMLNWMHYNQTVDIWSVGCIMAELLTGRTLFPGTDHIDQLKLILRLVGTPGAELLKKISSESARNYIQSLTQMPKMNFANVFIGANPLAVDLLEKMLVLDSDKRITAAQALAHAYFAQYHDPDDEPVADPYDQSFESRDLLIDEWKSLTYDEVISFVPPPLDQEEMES

With `Cc1cc(F)ccc1-c1nc(N(C(N)=O)c2c(Cl)cccc2Cl)ccc1CO`, the IC50 amounted to 20 nM at MAPK14 (human) [1]; 2 nM against MAPK14 (human) [2]; 118 nM against MAPK14 (human) [3]; 55 nM at MAPK14 (human) [4]; 50 nM against MAPK14 (human) [5]; 180 nM on MAPK14 (human) [6].
Regarding `Cc1cc(F)ccc1-c1nc(N(C(N)=O)c2c(F)cccc2F)ccc1CO`, the IC50 at MAPK14 (human) [1] amounted to 27 nM; at MAPK14 (human) [2], 27 nM; against MAPK14 (human) [3], 57 nM; against MAPK14 (human) [4], 90 nM; on MAPK14 (human) [5], 10 nM; against MAPK14 (human) [6], 75 nM.
On to `Cc1ccccc1-c1nc(N(C(N)=O)c2c(Cl)cccc2Cl)ccc1CO`, for which the IC50 at MAPK14 (human) [1] is 21 nM; at MAPK14 (human) [2], 56 nM; against MAPK14 (human) [3], 420 nM; on MAPK14 (human) [4], 64 nM; at MAPK14 (human) [5] it was 140 nM; on MAPK14 (human) [6] it was 250 nM.
